Test results published in ChEMBL document CHEMBL1909046, “DrugMatrix in vitro pharmacology data”.

Key:
[1] = target: Sodium-dependent dopamine transporter (Homo sapiens, UniProt Q01959); experiment: DRUGMATRIX: Dopamine Transporter radioligand binding (ligand: [125I] RTI-55); type: cell membranes, CHO-K1, Membrane; conditions: cho-k1; Not Active = under 50% inhibition at 10 µM
[2] = target: T1, 5-hydroxytryptamine receptor 1A (Rattus norvegicus, UniProt P19327); type: cell membranes, Membrane; conditions: cho-k1; further: in other assays of this panel Not Active means under 50% inhibition at 10 µM
T1 sequence (P19327 whole entry): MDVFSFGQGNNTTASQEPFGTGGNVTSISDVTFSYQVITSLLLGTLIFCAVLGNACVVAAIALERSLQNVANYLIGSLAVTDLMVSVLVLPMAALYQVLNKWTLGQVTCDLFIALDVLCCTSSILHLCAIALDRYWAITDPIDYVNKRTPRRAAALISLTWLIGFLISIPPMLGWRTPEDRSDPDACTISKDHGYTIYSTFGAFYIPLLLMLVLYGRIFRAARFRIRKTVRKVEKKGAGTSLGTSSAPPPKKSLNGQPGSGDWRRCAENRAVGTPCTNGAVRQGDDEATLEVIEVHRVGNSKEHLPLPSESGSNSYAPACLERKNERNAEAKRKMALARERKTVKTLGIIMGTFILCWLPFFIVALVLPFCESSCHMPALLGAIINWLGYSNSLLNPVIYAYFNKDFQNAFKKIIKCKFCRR

[3] = target: Tyrosine-protein kinase Lck (Homo sapiens, UniProt P06239); experiment: DRUGMATRIX: Protein Tyrosine Kinase, LCK enzyme inhibition (substrate: Poly(Glu:Tyr)); type: cell-based, Insect cells; conditions: insect cells; Not Active = under 50% inhibition at 10 µM
Tyrosine-protein kinase Lck, sequence (P06239 whole entry): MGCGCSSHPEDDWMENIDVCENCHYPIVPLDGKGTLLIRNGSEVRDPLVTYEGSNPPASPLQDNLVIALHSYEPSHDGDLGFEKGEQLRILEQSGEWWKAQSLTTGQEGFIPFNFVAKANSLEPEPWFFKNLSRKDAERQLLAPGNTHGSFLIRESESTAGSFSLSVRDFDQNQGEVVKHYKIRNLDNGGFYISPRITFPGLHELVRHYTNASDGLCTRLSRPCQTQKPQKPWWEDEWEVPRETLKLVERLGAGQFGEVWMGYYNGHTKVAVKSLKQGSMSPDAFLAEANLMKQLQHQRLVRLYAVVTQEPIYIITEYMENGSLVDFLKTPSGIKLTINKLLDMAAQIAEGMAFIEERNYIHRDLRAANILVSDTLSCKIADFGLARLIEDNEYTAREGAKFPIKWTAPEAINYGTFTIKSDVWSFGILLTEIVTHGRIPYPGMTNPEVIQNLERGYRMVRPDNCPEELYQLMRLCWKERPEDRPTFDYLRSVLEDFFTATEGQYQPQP

[4] = target: Protein phosphatase 3 catalytic subunit alpha (Homo sapiens, UniProt Q08209); set-up: species or system Escherichia coli;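 further: inhibition of calcineurin (PP2B) enzyme activity, measured with DiFMUP as the substrate; in other assays of this panel Not Active means under 50% inhibition at 10 µM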
[5] = target: Matrix metalloproteinase-9 (Homo sapiens, UniProt P14780); experiment: biochemical; type: cell-based;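 further: inhibition of isolated MMP-9 enzyme activity toward a synthetic peptide substrate, from the DrugMatrix protease screening panel; in other assays of this panel Not Active means under 50% inhibition at 10 µM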
Matrix metalloproteinase-9, sequence (P14780 whole entry): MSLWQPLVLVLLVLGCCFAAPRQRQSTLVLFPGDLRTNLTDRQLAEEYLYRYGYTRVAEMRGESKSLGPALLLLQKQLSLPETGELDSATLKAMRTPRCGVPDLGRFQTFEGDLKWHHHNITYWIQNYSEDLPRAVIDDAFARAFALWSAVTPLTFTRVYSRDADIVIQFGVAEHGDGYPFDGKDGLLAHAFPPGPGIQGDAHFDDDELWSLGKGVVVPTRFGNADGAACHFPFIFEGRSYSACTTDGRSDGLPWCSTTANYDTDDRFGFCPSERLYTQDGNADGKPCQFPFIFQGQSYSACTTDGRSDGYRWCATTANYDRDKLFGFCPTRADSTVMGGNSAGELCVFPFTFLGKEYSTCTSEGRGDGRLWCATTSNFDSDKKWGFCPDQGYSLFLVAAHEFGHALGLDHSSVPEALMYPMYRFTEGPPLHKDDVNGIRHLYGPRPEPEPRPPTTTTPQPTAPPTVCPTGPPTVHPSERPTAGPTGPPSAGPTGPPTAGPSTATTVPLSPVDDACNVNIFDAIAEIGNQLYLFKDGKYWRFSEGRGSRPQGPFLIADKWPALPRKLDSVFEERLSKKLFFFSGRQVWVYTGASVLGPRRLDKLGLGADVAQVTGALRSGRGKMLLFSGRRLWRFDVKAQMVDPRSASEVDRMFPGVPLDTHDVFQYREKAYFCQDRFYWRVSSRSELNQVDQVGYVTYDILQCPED

[6] = DRUGMATRIX: Potassium Channel [KATP] radioligand binding (ligand: [3H] Glyburide); type: cell membranes, Membrane; conditions: hit-t15; Not Active = under 50% inhibition at 10 µM
[7] = target: T2, Alpha-1B adrenergic receptor (Rattus norvegicus, UniProt P15823); experiment: DRUGMATRIX: Alpha-1B adrenergic receptor radioligand binding (ligand: prazosin); type: cell membranes, Wistar, Liver, Membrane; conditions: Not Active = under 50% inhibition at 10 µM
T2 sequence (P15823 whole entry): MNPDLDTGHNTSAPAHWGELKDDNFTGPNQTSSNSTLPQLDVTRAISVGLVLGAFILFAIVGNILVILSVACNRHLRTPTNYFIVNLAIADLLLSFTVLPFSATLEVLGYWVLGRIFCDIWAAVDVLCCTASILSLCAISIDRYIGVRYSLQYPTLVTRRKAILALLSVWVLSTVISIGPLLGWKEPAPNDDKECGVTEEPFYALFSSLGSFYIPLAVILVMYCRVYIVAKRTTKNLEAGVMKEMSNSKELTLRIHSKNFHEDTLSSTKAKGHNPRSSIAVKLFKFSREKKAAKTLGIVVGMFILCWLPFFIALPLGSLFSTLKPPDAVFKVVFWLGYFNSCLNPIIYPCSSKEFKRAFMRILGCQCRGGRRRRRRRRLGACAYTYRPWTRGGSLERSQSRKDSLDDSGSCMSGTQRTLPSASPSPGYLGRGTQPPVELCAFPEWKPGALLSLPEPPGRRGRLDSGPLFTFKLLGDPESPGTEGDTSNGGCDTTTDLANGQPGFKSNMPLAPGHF

Sodium-dependent dopamine transporter, sequence (Q01959 whole entry): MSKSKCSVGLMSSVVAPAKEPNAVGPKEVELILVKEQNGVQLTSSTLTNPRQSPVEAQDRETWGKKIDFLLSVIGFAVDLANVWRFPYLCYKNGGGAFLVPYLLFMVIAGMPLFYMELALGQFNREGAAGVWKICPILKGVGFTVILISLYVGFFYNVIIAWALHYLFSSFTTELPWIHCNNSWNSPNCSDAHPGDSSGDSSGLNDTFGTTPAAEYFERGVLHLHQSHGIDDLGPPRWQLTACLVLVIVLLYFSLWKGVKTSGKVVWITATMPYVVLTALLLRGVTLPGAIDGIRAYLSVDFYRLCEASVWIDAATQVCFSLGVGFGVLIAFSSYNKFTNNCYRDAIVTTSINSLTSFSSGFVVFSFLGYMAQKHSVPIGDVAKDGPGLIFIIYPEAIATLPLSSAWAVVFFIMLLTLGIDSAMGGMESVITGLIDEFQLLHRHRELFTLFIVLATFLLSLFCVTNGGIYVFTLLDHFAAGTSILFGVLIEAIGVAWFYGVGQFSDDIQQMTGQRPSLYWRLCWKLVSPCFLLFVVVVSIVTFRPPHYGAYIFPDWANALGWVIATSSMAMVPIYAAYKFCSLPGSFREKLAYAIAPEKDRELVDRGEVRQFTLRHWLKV

Row | Compound | IC50 [1] | IC50 [2] | IC50 [3] | IC50 [4] | IC50 [5] | IC50 [6] | Ki [6] | IC50 [7] | IC50 ([5]; read-out: IC50)
1 | C[N+](C)(C)CCO.[Cl-] [CHOLINE CHLORIDE] | Not Active | Not Active | Not Active | Not Active | Not Active | Not Active | Not Active | Not Active | 
2 | CCOC(=O)C(C)(C)Oc1ccc(Cl)cc1 [CLOFIBRATE] | Not Active | Not Active | Not Active | Not Active | Not Active | Not Active | Not Active | Not Active | 
3 | CC(=O)OCC(=O)[C@@]1(O)CC[C@H]2[C@@H]3CCC4=CC(=O)CC[C@]4(C)[C@H]3C(=O)C[C@@]21C [CORTISONE ACETATE] | Not Active | Not Active | Not Active | Not Active | Not Active | Not Active | Not Active | Not Active | 
4 | O=c1ccc2ccccc2o1 [COUMARIN] | Not Active | Not Active | Not Active | Not Active | Not Active | Not Active | Not Active | Not Active | 
5 | C[C@@H]1C[C@@H]([C@H](O)CC2CC(=O)NC(=O)C2)C(=O)[C@@H](C)C1 [CYCLOHEXIMIDE] | Not Active | Not Active | Not Active | Not Active | Not Active | Not Active | Not Active | Not Active | 
6 | CN(C)/N=N/c1[nH]cnc1C(N)=O [DACARBAZINE] | Not Active | Not Active | Not Active | Not Active |  | Not Active | Not Active | Not Active | 556 nM
7 | COc1ccc2c(c1)[C@]13CCCC[C@@H]1[C@H](C2)N(C)CC3 [DEXTROMETHORPHAN] | Not Active | Not Active | Not Active | Not Active | Not Active | Not Active | Not Active | Not Active | 
8 | CC(=O)Nc1c(I)c(NC(C)=O)c(I)c(C(=O)O)c1I [DIATRIZOIC ACID] | Not Active | Not Active | Not Active | Not Active | Not Active | Not Active | Not Active | Not Active | 
9 | COP(=O)(OC)OC=C(Cl)Cl [DICHLORVOS] | Not Active | Not Active | Not Active | Not Active | Not Active | Not Active | Not Active | Not Active | 
10 | O=C(O)Cc1ccccc1Nc1c(Cl)cccc1Cl [DICLOFENAC] | Not Active | Not Active | Not Active | Not Active | Not Active | Not Active | Not Active | Not Active | 
11 | C[C@H]1O[C@@H](O[C@H]2[C@@H](O)C[C@H](O[C@H]3[C@@H](O)C[C@H](O[C@H]4CC[C@@]5(C)[C@H](CC[C@@H]6[C@@H]5CC[C@]5(C)[C@@H](C7=CC(=O)OC7)CC[C@]65O)C4)O[C@@H]3C)O[C@@H]2C)C[C@H](O)[C@@H]1O [DIGITOXIN] | Not Active | Not Active | Not Active | Not Active | Not Active | Not Active | Not Active | Not Active | 
12 | CCN1CC(CCN2CCOCC2)C(c2ccccc2)(c2ccccc2)C1=O (centres undefined) [DOXAPRAM] | Not Active | Not Active | Not Active | Not Active | Not Active | Not Active | Not Active | Not Active | 
13 | Cn1c(=O)c2c(ncn2CC2OCCO2)n(C)c1=O [DOXOFYLLINE] | Not Active | Not Active | Not Active | Not Active | Not Active | Not Active | Not Active | Not Active | 
